Measurements reported in patent US10808235B2, “Beta-glucosidase and uses thereof” (priority 2015, dated 2020).

Legend:
Assay type in all cases: biochemical
[1] = target: T1, Rasamsonia emersonii beta-glucosidase, wild-type, SEQ ID NO: 2 (Rasamsonia emersonii, UniProt Q8TGI8); experiment: Glucose inhibition of initial rate of cellobiose hydrolysis, 100 ml scale (HPLC), wild type; details: 20 g/l glucose, 30 mM cellobiose, pH 4.5, 62° C., 4.5 μg/ml enzyme; read-out: Ratio (V0 in presence of glucose/V0 in absence of glucose)
T1 sequence (Q8TGI8 20-857): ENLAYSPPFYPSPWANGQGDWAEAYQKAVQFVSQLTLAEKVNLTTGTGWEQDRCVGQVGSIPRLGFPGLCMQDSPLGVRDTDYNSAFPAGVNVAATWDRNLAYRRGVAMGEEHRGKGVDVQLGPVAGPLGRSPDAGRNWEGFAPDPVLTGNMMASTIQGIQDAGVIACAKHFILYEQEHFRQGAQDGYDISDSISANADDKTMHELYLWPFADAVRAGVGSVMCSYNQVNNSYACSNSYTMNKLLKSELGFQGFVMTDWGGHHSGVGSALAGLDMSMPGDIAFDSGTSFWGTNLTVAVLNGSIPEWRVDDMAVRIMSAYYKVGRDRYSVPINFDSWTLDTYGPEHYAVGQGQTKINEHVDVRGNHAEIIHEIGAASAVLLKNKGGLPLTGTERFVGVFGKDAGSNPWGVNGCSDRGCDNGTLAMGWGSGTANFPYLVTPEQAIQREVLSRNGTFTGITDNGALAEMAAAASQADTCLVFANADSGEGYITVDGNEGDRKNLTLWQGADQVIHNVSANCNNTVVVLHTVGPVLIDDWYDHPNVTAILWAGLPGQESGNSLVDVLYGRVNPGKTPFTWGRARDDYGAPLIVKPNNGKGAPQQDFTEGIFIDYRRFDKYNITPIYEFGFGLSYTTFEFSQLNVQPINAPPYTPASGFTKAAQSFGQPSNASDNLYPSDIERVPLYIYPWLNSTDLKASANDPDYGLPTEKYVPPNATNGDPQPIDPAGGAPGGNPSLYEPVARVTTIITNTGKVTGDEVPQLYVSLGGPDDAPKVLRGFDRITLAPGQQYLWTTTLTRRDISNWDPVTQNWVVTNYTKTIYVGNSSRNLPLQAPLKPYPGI
Procedure: The hits selected from the MTP scale assay were subsequently further characterized by monitoring cellobiose conversion at multiple time points at a larger scale. The beta-glucosidase having the amino acid sequence of SEQ ID NO: 2 was used as reference (parent/wild-type beta-glucosidase). The assay was done as follows: the variant polypeptides and the reference beta-glucosidase were incubated at a concentration of 4.5 μg/ml in a 100 mM NaAc-buffer pH 4.5 with 30 mM cellobiose in a final volume of 100 ml for 2 hours at 62° C. under continuous stirring. […] The glucose and cellobiose content of the samples was determined using a High-Performance Liquid Chromatography System (Agilent 1100) equipped with a refection index detector (Agilent 1260 Infinity). […] The glucose and cellobiose were identified and quantified according to the retention time, which was compared to the external glucose and cellobiose standards ranging from 0.2; 0.4; 1.0; 2.0 g/l.
The concentration cellobiose was plotted against time and the linear part of this curve (the linear part of the cellobiose hydrolysis) was used to calculate the V0 (the initial rate of cellobiose hydrolysis) in the presence and absence of 20 g/l glucose. The ratio of these two calculated rates (V0 in presence of glucose/V0 in absence of glucose) was calculated for the wild-type beta-glucosidase and the variant polypeptides and is listed in Table 2. […]

[2] = target: T1, Rasamsonia emersonii beta-glucosidase, wild-type, SEQ ID NO: 2; experiment: Kinetics of cellobiose hydrolysis with and without 20 g/l glucose (NMR, MTP scale, model fit), wild type; details: 10 g/l cellobiose, pH 4.5, 65° C., 20 min; Km set to 0.1 g/L
Procedure: (§1) For the follow-up experiment, five dilutions were made: 2-fold, 4-fold, 8-fold, 16-fold and 32-fold. The beta-glucosidase activity of the variant polypeptides and the wild-type beta-glucosidase was further analyzed in a MTP scale activity assay using cellobiose as substrate and monitoring cellobiose hydrolysis via glucose formation with NMR of the undiluted sample and the five dilutions. The same assay was performed for all dilutions in presence of 20 g/l glucose to determine the glucose tolerance. […] Subsequently, cellobiose and glucose levels in the samples were analyzed with NMR.
(§2) After enzymatic incubation, 100 μl of internal standard solution containing 20 g/I maleic acid and EDTA (40 g/L) in demineralized water, was added to each sample. […] 1D ^1H NMR spectra were recorded on a Bruker Avance III HD 500 MHz, equipped with a He cooled cryo-probe, using a pulse program without water suppression at a temperature of 29° C. with a 90 degrees excitation pulse, acquisition time of 2.7 s and relaxation delay of 30 s. The analyte concentrations (in g/L) were calculated based on the following signals (δ relative to DSS): Cellobiose: H1′ cellobiose peak at 4.50 ppm (d, 1H, J=8 Hz); Glucose: α-H1 glucose/α-H1 cellobiose peak at 5.22 ppm (d, 0.38 H, J=4 Hz). The glucose concentration was determined after correction for cellobiose. […]

[3] = target: Rasamsonia emersonii beta-glucosidase variant polypeptide 1 (SEQ ID NO: 2 with substitutions M90L + M335V + M485I) (Rasamsonia emersonii, UniProt Q8TGI8, M335V/M485I/M90L); experiment: Kinetics of cellobiose hydrolysis with and without 20 g/l glucose (NMR, MTP scale, model fit), variant polypeptide 1; details: 10 g/l cellobiose, pH 4.5, 65° C., 20 min; Km set to 0.1 g/L
Procedure: as §1, §2

[4] = target: Rasamsonia emersonii beta-glucosidase variant polypeptide 2 (SEQ ID NO: 2 with substitution N103A) (Rasamsonia emersonii, UniProt Q8TGI8, N103A); experiment: Kinetics of cellobiose hydrolysis with and without 20 g/l glucose (NMR, MTP scale, model fit), variant polypeptide 2; details: 10 g/l cellobiose, pH 4.5, 65° C., 20 min; Km set to 0.1 g/L
Procedure: as §1, §2

[5] = target: Rasamsonia emersonii beta-glucosidase variant polypeptide 3 (SEQ ID NO: 2 with substitution G142S) (Rasamsonia emersonii, UniProt Q8TGI8, G142S); experiment: Kinetics of cellobiose hydrolysis with and without 20 g/l glucose (NMR, MTP scale, model fit), variant polypeptide 3; details: 10 g/l cellobiose, pH 4.5, 65° C., 20 min; Km set to 0.1 g/L
Procedure: as §1, §2

[6] = target: Rasamsonia emersonii beta-glucosidase variant polypeptide 4 (SEQ ID NO: 2 with substitution L606A) (Rasamsonia emersonii, UniProt Q8TGI8, L606A); experiment: Kinetics of cellobiose hydrolysis with and without 20 g/l glucose (NMR, MTP scale, model fit), variant polypeptide 4; details: 10 g/l cellobiose, pH 4.5, 65° C., 20 min; Km set to 0.1 g/L
Procedure: as §1, §2

Sequence of Rasamsonia emersonii beta-glucosidase variant polypeptide 2 (SEQ ID NO: 2 with substitution N103A) (Q8TGI8 entry or part of it N103A): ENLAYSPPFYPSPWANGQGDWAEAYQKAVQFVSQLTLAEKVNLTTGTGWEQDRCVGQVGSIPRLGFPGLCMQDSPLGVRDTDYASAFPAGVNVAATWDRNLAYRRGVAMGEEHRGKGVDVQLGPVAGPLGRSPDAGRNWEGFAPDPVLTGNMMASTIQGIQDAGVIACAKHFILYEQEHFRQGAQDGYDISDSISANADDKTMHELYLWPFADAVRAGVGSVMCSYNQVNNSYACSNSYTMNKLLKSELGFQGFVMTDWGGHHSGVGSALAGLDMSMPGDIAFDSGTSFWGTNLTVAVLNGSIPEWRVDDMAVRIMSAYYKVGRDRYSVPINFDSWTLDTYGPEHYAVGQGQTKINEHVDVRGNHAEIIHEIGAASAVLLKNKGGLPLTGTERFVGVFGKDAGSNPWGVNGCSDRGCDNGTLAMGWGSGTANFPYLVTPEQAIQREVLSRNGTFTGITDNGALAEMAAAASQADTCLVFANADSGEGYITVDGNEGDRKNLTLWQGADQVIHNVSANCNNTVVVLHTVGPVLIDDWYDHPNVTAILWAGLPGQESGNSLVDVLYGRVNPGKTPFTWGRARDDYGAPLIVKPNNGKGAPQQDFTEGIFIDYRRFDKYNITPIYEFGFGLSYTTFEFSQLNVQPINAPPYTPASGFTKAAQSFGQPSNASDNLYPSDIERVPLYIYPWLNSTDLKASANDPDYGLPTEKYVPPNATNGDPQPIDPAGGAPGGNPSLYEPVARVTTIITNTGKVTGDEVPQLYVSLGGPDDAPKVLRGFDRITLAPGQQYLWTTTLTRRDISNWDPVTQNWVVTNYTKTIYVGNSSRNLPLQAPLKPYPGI
Sequence of Rasamsonia emersonii beta-glucosidase variant polypeptide 1 (SEQ ID NO: 2 with substitutions M90L + M335V + M485I) (Q8TGI8 entry or part of it M90L/M335V/M485I): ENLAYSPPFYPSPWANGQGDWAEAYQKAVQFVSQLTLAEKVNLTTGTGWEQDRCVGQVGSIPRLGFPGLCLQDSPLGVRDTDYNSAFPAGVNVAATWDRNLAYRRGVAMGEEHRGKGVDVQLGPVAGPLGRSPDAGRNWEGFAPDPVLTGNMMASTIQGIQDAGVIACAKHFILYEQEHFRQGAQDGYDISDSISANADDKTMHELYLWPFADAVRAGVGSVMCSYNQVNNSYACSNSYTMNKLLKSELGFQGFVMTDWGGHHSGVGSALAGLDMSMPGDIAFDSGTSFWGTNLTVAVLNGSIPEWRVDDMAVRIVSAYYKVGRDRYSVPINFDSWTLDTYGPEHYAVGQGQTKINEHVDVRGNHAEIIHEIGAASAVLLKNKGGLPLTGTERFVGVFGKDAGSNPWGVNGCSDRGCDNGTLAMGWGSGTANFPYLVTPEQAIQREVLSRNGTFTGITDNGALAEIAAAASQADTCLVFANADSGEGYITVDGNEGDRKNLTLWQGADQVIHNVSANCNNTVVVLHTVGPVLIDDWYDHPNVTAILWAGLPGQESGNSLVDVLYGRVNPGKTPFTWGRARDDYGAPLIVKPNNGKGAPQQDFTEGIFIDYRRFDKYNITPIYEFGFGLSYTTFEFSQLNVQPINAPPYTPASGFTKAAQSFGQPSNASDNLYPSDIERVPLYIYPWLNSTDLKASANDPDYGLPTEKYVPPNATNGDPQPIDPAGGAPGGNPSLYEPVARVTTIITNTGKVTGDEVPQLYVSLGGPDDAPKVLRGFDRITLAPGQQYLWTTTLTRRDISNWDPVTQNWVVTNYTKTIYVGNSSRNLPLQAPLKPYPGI
Sequence of Rasamsonia emersonii beta-glucosidase variant polypeptide 3 (SEQ ID NO: 2 with substitution G142S) (Q8TGI8 entry or part of it G142S): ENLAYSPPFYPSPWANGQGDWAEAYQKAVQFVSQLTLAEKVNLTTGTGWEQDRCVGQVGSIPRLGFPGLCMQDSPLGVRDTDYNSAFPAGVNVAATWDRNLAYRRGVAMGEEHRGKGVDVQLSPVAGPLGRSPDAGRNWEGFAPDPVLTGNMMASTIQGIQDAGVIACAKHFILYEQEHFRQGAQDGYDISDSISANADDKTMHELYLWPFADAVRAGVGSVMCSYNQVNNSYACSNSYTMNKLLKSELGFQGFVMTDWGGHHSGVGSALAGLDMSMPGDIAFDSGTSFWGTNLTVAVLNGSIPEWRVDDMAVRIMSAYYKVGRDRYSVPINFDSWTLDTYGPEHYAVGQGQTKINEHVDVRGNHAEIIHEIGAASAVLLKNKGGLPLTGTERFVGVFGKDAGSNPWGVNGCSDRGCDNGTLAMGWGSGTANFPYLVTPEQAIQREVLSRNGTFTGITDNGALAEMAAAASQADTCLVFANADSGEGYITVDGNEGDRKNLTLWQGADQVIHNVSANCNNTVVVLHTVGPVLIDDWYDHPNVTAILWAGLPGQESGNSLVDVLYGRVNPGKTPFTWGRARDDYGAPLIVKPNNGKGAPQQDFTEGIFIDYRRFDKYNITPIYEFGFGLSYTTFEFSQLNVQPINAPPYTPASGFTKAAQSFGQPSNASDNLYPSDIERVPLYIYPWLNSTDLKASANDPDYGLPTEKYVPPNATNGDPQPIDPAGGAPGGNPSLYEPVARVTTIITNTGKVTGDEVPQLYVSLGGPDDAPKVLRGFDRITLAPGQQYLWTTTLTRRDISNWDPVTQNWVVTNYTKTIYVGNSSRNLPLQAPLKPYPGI
Sequence of Rasamsonia emersonii beta-glucosidase variant polypeptide 4 (SEQ ID NO: 2 with substitution L606A) (Q8TGI8 entry or part of it L606A): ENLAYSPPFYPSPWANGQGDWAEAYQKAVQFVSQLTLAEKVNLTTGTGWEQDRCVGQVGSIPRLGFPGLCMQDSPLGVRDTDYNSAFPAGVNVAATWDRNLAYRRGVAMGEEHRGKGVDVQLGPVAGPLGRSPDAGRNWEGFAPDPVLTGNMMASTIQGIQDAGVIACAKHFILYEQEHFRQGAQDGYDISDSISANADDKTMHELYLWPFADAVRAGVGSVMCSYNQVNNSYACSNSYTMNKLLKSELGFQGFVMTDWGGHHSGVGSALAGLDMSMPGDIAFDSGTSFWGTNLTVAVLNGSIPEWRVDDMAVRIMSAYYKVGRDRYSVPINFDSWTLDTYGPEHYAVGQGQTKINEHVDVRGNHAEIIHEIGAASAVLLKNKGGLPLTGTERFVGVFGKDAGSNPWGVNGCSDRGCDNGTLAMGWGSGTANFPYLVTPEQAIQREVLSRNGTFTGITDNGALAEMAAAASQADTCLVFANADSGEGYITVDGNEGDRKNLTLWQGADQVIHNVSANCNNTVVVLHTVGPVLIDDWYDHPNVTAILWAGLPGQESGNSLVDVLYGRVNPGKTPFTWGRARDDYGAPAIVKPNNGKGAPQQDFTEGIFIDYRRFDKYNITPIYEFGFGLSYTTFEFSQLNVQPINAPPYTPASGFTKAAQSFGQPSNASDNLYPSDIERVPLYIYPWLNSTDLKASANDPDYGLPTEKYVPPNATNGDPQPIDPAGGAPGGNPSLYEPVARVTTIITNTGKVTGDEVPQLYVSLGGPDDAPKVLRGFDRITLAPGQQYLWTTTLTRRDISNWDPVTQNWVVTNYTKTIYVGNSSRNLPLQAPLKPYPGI

Structure (SMILES) | activity at 20000 µg/mL [1] [%] | kcat (cellobiose), model prediction [2] [unitless] | kcat (cellobiose), model prediction [3] [unitless] | kcat (cellobiose), model prediction [4] [unitless] | kcat (cellobiose), model prediction [5] [unitless] | kcat (cellobiose), model prediction [6] [unitless]
OC[C@H]1OC(O)[C@H](O)[C@@H](O)[C@@H]1O (stereo partly drawn) [glucose] | 18 | – | – | – | – | –
OC[C@H]1O[C@@H](O[C@H]2[C@H](O)[C@@H](O)C(O)O[C@@H]2CO)[C@H](O)[C@@H](O)[C@@H]1O (stereo partly drawn) [cellobiose] | – | 1.0 | 0.9 | 1.1 | 0.8 | 2.7
